Assay results as given in paper PMC5077990, “P53 activation inhibits all types of hematopoietic progenitors and all stages of megakaryopoiesis” (Oncotarget, 2016).
Where two headings read alike, the source gives them in different places.

Legend:
Format in all cases: cell-based, human
[1] = tested on: CFU-GM (Colony Forming Unit-Granulocyte Macrophage) progenitors from CD34+ cells; experiment: Colony assay in methylcellulose, CFU-GM; conditions: Homo sapiens, CFU-GM
Method: CD34^+cells were obtained from leukapheresis samples after mobilization of donors after informed consent in agreement with our Institute Ethic Committee (Assistance Publique des Hôpitaux de Paris) and in accordance with the Declaration of Helsinki. CD34^+cells were isolated by a positive selection using an immunomagnetic cell sorting system (AutoMacs; Miltenyi Biotec, Bergisch Gladbach, Germany). 500 to 1000 normal CD34^+cells were plated either in 1% methylcellulose assay (StemCells technologies, Vancouver, Canada) to quantify erythroid (BFU-E) and granulo-monocytic (CFU-GM) progenitors or in serum-free fibrin clot assay for quantification of MK progenitors (CFU-MK) in the absence or presence of various concentration of SAR405838 or MI-219. Cultures in methylcellulose were stimulated by addition of human recombinant growth factors: G-CSF (20 ng/mL), IL-3 (10 ng/mL) SCF (25 ng/mL, Biovitrum AB, Stockholm, Sweden), IL-6 (10 ng/mL), FLT3 (10 ng/mL) and human EPO (1 U/mL). Cultures in fibrin clot were stimulated with 10 ng/mL TPO (Kirin Brewery, Tokyo, Japan) and 25 ng/mL SCF. […] CFU-MK colonies were enumerated at day 12 after labeling by an indirect immuno-alkaline phosphatase staining technique using an anti-CD41a monoclonal antibody (MoAb; Becton Dickinson, le Pont de Claix, France; clone HIP8), as previously described.

Day 6-megakaryoblasts = experiment: Viability of day 6-megakaryoblasts; conditions: 0.5 μM, 72 hours
Method: We also explored the effects of p53 stabilization at a later stage of megakaryocytic differentiation. […] Day 7-MKs were treated with 5 μM Nutlin 3a for 24 or 48 hours, which led to an increase in p53, p21, BAX, BCL2 and BCL-XL levels, confirming a functional p53 activity (Figure 6A). […] Similar results were found with day 6-megakaryoblasts treated with two doses of SAR405838 for 72 hours (Figure 6D/6E) without any major effect on the percentage of CD41^+ cells (Figure 6F). […] As shown in Figure 6D/6E, at the dose of 0.5 μM the SAR405838 induced a 50% decreased in the number of viable cells while the apoptotic cells reached 50% of the total cells. We checked if the effect of SAR405838 on MKs could be reverted by the addition of high TPO doses. CD34^+ progenitors were cultured in serum-free medium supplemented with SCF and low dose of TPO (1 ng/mL) for 6 days. Day 6-megakaryoblasts were then treated with 1.5 μM of SAR405838 for 48 hours and various doses of TPO.
In parallel, the expression of P53, BAK, BCL2L1, NOXA, PUMA, BAX, P21 and P53 were quantified by qRT-PCR related to HPRT. C. […] (n=3). D, E, F. Day 6-megakaryoblasts were exposed to MI-219 or SAR405838 (0.5 or 1 μM for 72 hours) and cell viability (D), apoptosis (E) or CD41 expression (F) were investigated. […] One representative experiment (n= 2). […]

[2] = tested on: CFU-MK (Colony Forming Unit-Megakaryocyte) progenitors from CD34+ cells; experiment: Colony assay in fibrin clot, CFU-MK; conditions: Homo sapiens
Method: CD34^+cells were obtained from leukapheresis samples after mobilization of donors after informed consent in agreement with our Institute Ethic Committee (Assistance Publique des Hôpitaux de Paris) and in accordance with the Declaration of Helsinki. CD34^+cells were isolated by a positive selection using an immunomagnetic cell sorting system (AutoMacs; Miltenyi Biotec, Bergisch Gladbach, Germany). 500 to 1000 normal CD34^+cells were plated either in 1% methylcellulose assay (StemCells technologies, Vancouver, Canada) to quantify erythroid (BFU-E) and granulo-monocytic (CFU-GM) progenitors or in serum-free fibrin clot assay for quantification of MK progenitors (CFU-MK) in the absence or presence of various concentration of SAR405838 or MI-219. Cultures in methylcellulose were stimulated by addition of human recombinant growth factors: G-CSF (20 ng/mL), IL-3 (10 ng/mL) SCF (25 ng/mL, Biovitrum AB, Stockholm, Sweden), IL-6 (10 ng/mL), FLT3 (10 ng/mL) and human EPO (1 U/mL). Cultures in fibrin clot were stimulated with 10 ng/mL TPO (Kirin Brewery, Tokyo, Japan) and 25 ng/mL SCF. BFU-E and CFU-GM colonies were enumerated at day 14 of culture. […]

Compound: CC(C)(C)C[C@@H]1N[C@@H](C(=O)N[C@H]2CC[C@H](O)CC2)[C@H](c2cccc(Cl)c2F)[C@]12C(=O)Nc1cc(Cl)ccc12 [SAR405838]
- IC50 ([1]; 72 h, CD34+ cells treated 3 days, washed, then plated in colony assay, read-out: IC50, reduction of CFU-GM progenitors): ~2 µM
- IC50 ([1]; CD34+ cells seeded in methylcellulose in the presence of compound, compared to untreated control, read-out: dose inducing a 50% reduction of CFU-GM numbers): 0.5 to 1 µM
- decrease in the number of viable cells (Day 6-megakaryoblasts): 50%
- IC50 ([2]; 72 h, CD34+ cells treated 3 days, washed, then plated in colony assay, read-out: IC50, reduction of CFU-MK progenitors): ~2 µM
- IC50 ([2]; CD34+ cells seeded in fibrin clot in the presence of compound, compared to untreated control, read-out: dose inducing a 50% reduction of CFU-MK numbers): 0.5 to 1 µM
